Marks after values point to notes of the source that are not given here.
Assays:
[1] = system: HEK293 cells; assay: alamarBlue cytotoxicity assessment in HEK293 cells; type: cell-based, human; conditions: HEK293, alamarBlue, 16 h; concentration not given
Description: Figure S2: Concentration-dependent cytotoxicity assessment of RUN compounds.
HEK293 cells were treated for 16 hours with increasing concentrations of RUN compounds (1.25 µM; 2.5 µM; 5; 7.5 and 10 µM) or DMSO (negative control). Cell viability was determined using the alamarBlue assay following the protocol of Riss.(1) Data are presented as means ± SD from three independent experiments (n = 3). Statistical analysis was done using repeated measures one-way ANOVA with Geisser–Greenhouse correction, followed by Dunnett’s multiple comparisons test. *p<0.05. Detailed results of the analysis are shown in […]
(1 picture or pasted object on this page, not shown here)
(§1) 2 Biology Experimental Procedures
(§2) Safety statement: No unexpected or unusually high safety hazards were encountered. […]
Cell lines were sourced from the ATCC (USA) and/or ECACC (UK), namely HCT116 (human colorectal carcinoma), ATCC CCL-247 (RRID:CVCL_0291), HEK-293 (human embryonic kidney), ATCC CRL-1573 (RRID:CVCL_0045), SH-SY5Y (human neuroblastoma), ATCC CRL-2266 (RRID:CVCL_0019). The characteristics of DDI2 knockout cells derived from HCT116 cells have been described previously (Sedlacek et al., 2025). All cell lines were tested for mycoplasma contamination. Most of the cell lines were cultured in Dulbecco's Modified Eagle Medium (DMEM) enriched with 10% fetal bovine serum (FBS) and 2 mM L-glutamine, under standard conditions of 37 °C with 5% CO₂. DNA transfection was performed with Lipofectamine 2000, following the manufacturer's instructions. Transgenic cells were then selected with either G418 (400 µg/mL) or hygromycin B (450 µg/mL), based on the selection marker encoded by the plasmid used. […]

[2] = system: NFE2L1 pathway; assay: 3×PSMA4-ARE-LUC dual luciferase reporter assay in HEK293 cells; type: cell-based, human; conditions: Homo sapiens; 5 μM, 16 h, HEK293, luminescence relative to DMSO-treated cells; read-out: NFE2L1 activation [5 μM]
Description: In our previous work,[43] we developed a library of NFE2L1 stimulators using a cell-based luciferase reporter assay. This system was based on three tandem copies of the antioxidant response element (ARE) derived from the NFE2L1 target gene proteasome subunit alpha type-4 (3xPSMA4, PSMA4-ARE-LUC). It was designed to detect the proteasome “bounce-back” response induced by proteasome inhibitors such as MG132 or bortezomib.[22,43,45,46] The reporter assay was adapted to a 384-well format and used to evaluate a new set of RUN compounds designed around the structural framework of the RUN-47 activator. We focused on identifying compounds that increased the 3×PSMA4-ARE-LUC signal (Fig. 1A), while simultaneously assessing cytotoxicity (see the SI, Fig. S2). […] In contrast, thiourea- and urea-containing derivatives generally produced only weak to intermediate responses, rarely exceeding a fold change of 7.
Fig. 1 (A) Targeted library screening of RUN compounds using the 3×PSMA4-ARE-LUC dual reporter assay in HEK293 cells. Cells were exposed to RUN compounds (5 μM) for 16 hours, and luciferase activity was measured. Data are presented as the mean ± SD from three independent experiments (n = 3). Results are shown as a fold change in luminescence relative to DMSO-treated cells. Selected hit compounds are highlighted in distinct colours. (B) RUN-89 specifically activates the NFE2L1 pathway. The DDI2 knockout (KO) and parental (WT) HCT116 cells were transfected with the 3×PSMA4-ARE-LUC reporter and treated with 0.5 μM bortezomib (BTZ) and 5 μM RUN-89 for 16 hours. Data are presented as the Geomean ± GeoSD of three independent experiments (n = 3). Statistical analysis was performed on log2-transformed values using two-way repeated-measures ANOVA followed by Šídak's multiple comparison test. (C) RUN-89 selectively triggers downstream signaling events associated with NFE2L1 gene expression. HEK293 cells were transfected with lipid nanoparticles (LNPs) carrying siRNAs targeting NFE2L1 or NFE2L2. LNPs formulated with non-targeting siRNA served as a negative control. Following 24 hours of incubation, cells were treated with 7.5 μM RUN-89 or DMSO (vehicle) for an additional 16 hours. Expression of the proteasomal subunit gene PSMC4 was then quantified by RT-qPCR. Data are shown as the Geomean ± GeoSD from three independent biological replicates (n = 3). Log2-transformed data were analyzed using two-way repeated-measures ANOVA with the Geisser–Greenhouse correction, followed by Tukey's multiple comparison test with individual variances computed for each comparison. Additional results for NFE2L1, NFE2L2, PSMB7, and PSMD12 are presented in SI Fig. S10.
Figure S1: Concentration–response of luciferase cell-based assay (PSMA4-ARE-luc2P reporter) on treatment with RUN-81, RUN-89, and RUN-94. Concentration is plotted on the X-axis. Dose–response relationships were analyzed using a four-parameter logistic curve (4PL), or a bell-shaped dose-response curve, both with weighting 1/Y^2. Dotted lines represent 95% confidence bands. Calculated EC₅₀ values, curve parameters, and asymmetrical confidence intervals are summarized in the accompanying table . Data are presented as mean ± SD from four independent experiments (n=4).
as §1, §2
Most of the cell lines were cultured in Dulbecco's Modified Eagle Medium (DMEM) enriched with 10% fetal bovine serum (FBS) and 2 mM L-glutamine, under standard conditions of 37 °C with 5% CO₂. DNA transfection was performed with Lipofectamine 2000, following the manufacturer's instructions. Transgenic cells were then selected with either G418 (400 µg/mL) or hygromycin B (450 µg/mL), based on the selection marker encoded by the plasmid used. Cell viability was evaluated using the […]

Structure (SMILES) | Tox [% of ctrl.] [1] | fold induction at 5 µM [2]
COc1ccc(/C=C2\CC(NC(=O)c3ncccc3C)C/C(=C\c3ccc(OC)c(OC)c3)C2=O)cc1OC (stereo not shown) [RUN-93] | 75% of ctrl. | 11.9
COc1ccc(/C=C2\CC(NC(=O)Cc3c[nH]cn3)C/C(=C\c3ccc(OC)c(OC)c3)C2=O)cc1OC (stereo not shown) [RUN-95] | 96% of ctrl. | 2
COc1ccc(/C=C2\CC(NC(=O)[C@@H]3CCCN3)C/C(=C\c3ccc(OC)c(OC)c3)C2=O)cc1OC.O=C(O)C(F)(F)F (stereo partly shown) [RUN-96] | 93% of ctrl. | 2.2
COc1ccc(/C=C2\CC(NC(=O)C3CCC(=O)N3)C/C(=C\c3ccc(OC)c(OC)c3)C2=O)cc1OC (stereo not shown) [RUN-97] | 99% of ctrl. | 1.6
COc1ccc(/C=C2\CC(NC(=O)CN3CCOCC3)C/C(=C\c3ccc(OC)c(OC)c3)C2=O)cc1OC.O=C(O)C(F)(F)F (stereo not shown) [RUN-98] | 102% of ctrl. | 2.1
COc1ccc(/C=C2\CC(NC(=O)Cn3ccnc3)C/C(=C\c3ccc(OC)c(OC)c3)C2=O)cc1OC (stereo not shown) [RUN-99] | 103% of ctrl. | 1.6
COc1ccc(/C=C2\CC(NC(=O)CCCN)C/C(=C\c3ccc(OC)c(OC)c3)C2=O)cc1OC.O=C(O)C(F)(F)F (stereo not shown) [RUN-100] | 100% of ctrl. | 1.2
COc1ccc(/C=C2\CC(NC(=O)CCN(C)C)C/C(=C\c3ccc(OC)c(OC)c3)C2=O)cc1OC (stereo not shown) [RUN-101] | 97% of ctrl. | 2
CCN(CC)CC(=O)NC1C/C(=C\c2ccc(OC)c(OC)c2)C(=O)/C(=C/c2ccc(OC)c(OC)c2)C1 (stereo not shown) [RUN-102] | 96% of ctrl. | 1.3
COc1ccc(/C=C2\CN(C(=O)C3CCCC3)C/C(=C\c3ccc(OC)c(OC)c3)C2=O)cc1OC [RUN-103] | 80% of ctrl. | 9.4
COc1ccc(/C=C2\CC(NC(=O)CCN)C/C(=C\c3ccc(OC)c(OC)c3)C2=O)cc1OC (stereo not shown) [RUN-104] | 105% of ctrl. | 0.8
COc1ccc(/C=C2\CN(C(=O)CN3CCN(C)CC3)C/C(=C\c3ccc(OC)c(OC)c3)C2=O)cc1OC [RUN-105] | 78% of ctrl. | 4.5
COc1ccc(/C=C2\CN(C(=O)CCCN(C)C)C/C(=C\c3ccc(OC)c(OC)c3)C2=O)cc1OC.O=C(O)C(F)(F)F [RUN-106] | 75% of ctrl. | 2.8
COc1ccc(/C=C2\CN(C(=O)c3ncccc3C)C/C(=C\c3ccc(OC)c(OC)c3)C2=O)cc1OC [RUN-107] | 73%* % of ctrl. | 5
COc1ccc(/C=C2\CN(C(=O)c3ccccn3)C/C(=C\c3ccc(OC)c(OC)c3)C2=O)cc1OC [RUN-108] | 83% of ctrl. | 0.9
COc1ccc(/C=C2\CN(C(=O)Cc3c[nH]cn3)C/C(=C\c3ccc(OC)c(OC)c3)C2=O)cc1OC [RUN-109] | 78% of ctrl. | 4.3
COc1ccc(/C=C2\CN(C(=O)[C@@H]3CCC(=O)N3)C/C(=C\c3ccc(OC)c(OC)c3)C2=O)cc1OC [RUN-110] | 85% of ctrl. | 1.8
